Measured values published in the supplement of paper PMC11208160.

Assay: recombinant UMI read abundance after kanamycin selection (control-corrected) (log10(CPM+1)); higher = more efficient recombination; extreme values may be limits of the assay; sequences stand for … in AGTGCAGAGAAAATCGGCCAGTTTTCTCTGCCTGCAGTCCGCATGCCGTGGGACCCCTTGGGTTCTAACCTGTTGCCTAGATTTATGCAGCGGACTGCCTTTCTCCCAAAGTGATAAACCGG…AGGTTGGTTTCACT; site = the 11-nt donor
Summary of the method: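 The measure is log10(CPM+1) for recombinant UMIs. These were PCR-amplified across the donor–target junction and sequenced after Escherichia coli carrying a donor and donor-binding-loop pair library and a target plasmid with T7-inducible IS621 bridge recombinase was plated on IPTG (0.07 mM) plus kanamycin or unselected. CPM were averaged over two replicates and scaled by control-derived factors.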
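Also: IS621 bridge recombinase in Escherichia coli cells against a fixed T5 target plasmid.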

Row | Sequence | recombinant UMI read abundance (log10)
1 | AGGAAGGCATGGACCGGTTTTCCCGGTAATCCGTATTTGCT (site AGAAAGGCTAG) | 2.69
2 | AGGAAGGCATGGACCGGTTTTCCCGGTAATCCGTATTTGCT (site AGCAAGGCTAG) | 0.362
3 | AGGAAGGCATGGACCGGTTTTCCCGGTAATCCGTATTTGCT (site AGGAAGACTTG) | 0.296
4 | AGGAAGGCATGGACCGGTTTTCCCGGTAATCCGTATTTGCT (site AGGAAGGCTAG) | 2.27
5 | AGGAAGGCATGGACCGGTTTTCCCGGTAATCCGTATTTGCT (site AGTAAGGCTAG) | 1.3
6 | AGGAAGGCATGGACCGGTTTTCCCGGTAATCCGTATTTGGA (site AGGAAGACTTG) | 0.224
7 | AGGAAGGCATGGACCGGTTTTCCCGGTAATCCGTATTTGGA (site AGGAAGGCTTC) | 1.73
8 | AGGAAGTCATGGACCGGTTTTCCCGGTAATCCGTATTTGCA (site AGGAAGACTTG) | 0.839
9 | AGGAAGTCATGGACCGGTTTTCCCGGTAATCCGTATTTGCA (site AGGAAGCCTTG) | 0.641
10 | AGGAAGTCATGGACCGGTTTTCCCGGTAATCCGTATTTGCA (site AGGAAGGCTTG) | 0
11 | AGGAAGTCATGGACCGGTTTTCCCGGTAATCCGTATTTGCA (site AGGAAGTCTTG) | 3.29
12 | AGGAAGTCATGGACCGGTTTTCCCGGTAATCCGTATTTGTC (site AGGAAGTCTGA) | 3.14
13 | AGGAATTCATGGACCGGTTTTCCCGGTAATCCGTATTTGTT (site AGGAATTCTAA) | 2.16
14 | AGGAATTCATGGACCGGTTTTCCCGGTAATCCGTATTTGTT (site CGGAATCCTAA) | 0
15 | AGGACGACATGGACCGGTTTTCCCGGTAATCCGTATTTGCA (site AGGAAGACTTG) | 0.601
16 | AGGACGACATGGACCGGTTTTCCCGGTAATCCGTATTTGCA (site AGGACGACTTG) | 2.51
17 | AGGACGACATGGACCGGTTTTCCCGGTAATCCGTATTTGCA (site AGGAGGACTTG) | 1.38
18 | AGGACGACATGGACCGGTTTTCCCGGTAATCCGTATTTGCA (site AGGATGACTTG) | 0.853
19 | AGGACGACATGGACCGGTTTTCCCGGTAATCCGTATTTGGA (site AGGAAGACTTG) | 0
20 | AGGACGACATGGACCGGTTTTCCCGGTAATCCGTATTTGGA (site AGGACGACTTC) | 0.813
21 | AGGACTACATGGACCGGTTTTCCCGGTAATCCGTATTTGGC (site AGGACTACTGA) | 0
22 | AGGACTACATGGACCGGTTTTCCCGGTAATCCGTATTTGGC (site AGGACTACTGC) | 2.95
23 | AGGACTACATGGACCGGTTTTCCCGGTAATCCGTATTTGGC (site AGGACTACTGG) | 0
24 | AGGACTACATGGACCGGTTTTCCCGGTAATCCGTATTTGGC (site AGGACTACTGT) | 1.61
25 | AGGACTTCATGGACCGGTTTTCCCGGTAATCCGTATTTGAC (site AGGACTACTGT) | 0

Row | Sequence | recombinant UMI read abundance (log10)
26 | AGGACTTCATGGACCGGTTTTCCCGGTAATCCGTATTTGAC (site AGGACTCCTGT) | 0.509
27 | AGGACTTCATGGACCGGTTTTCCCGGTAATCCGTATTTGAC (site AGGACTGCTGT) | 0
28 | AGGACTTCATGGACCGGTTTTCCCGGTAATCCGTATTTGAC (site AGGACTTCTGT) | 2.76
29 | AGGAGGACATGGACCGGTTTTCCCGGTAATCCGTATTTGAA (site AGGAAGACTTG) | 0
30 | AGGAGGACATGGACCGGTTTTCCCGGTAATCCGTATTTGAA (site AGGAGGACTTT) | 2.19
31 | AGGAGGACATGGACCGGTTTTCCCGGTAATCCGTATTTGCC (site AGGAAGACTTG) | 0
32 | AGGAGGACATGGACCGGTTTTCCCGGTAATCCGTATTTGCC (site AGGAGGACTGG) | 1.68
33 | AGGATGACATGGACCGGTTTTCCCGGTAATCCGTATTTGCG (site AGGAAGACTTG) | 0
34 | AGGATGACATGGACCGGTTTTCCCGGTAATCCGTATTTGCG (site AGGATGACTCG) | 2.3
35 | AGGCACGCATGGACCGGTTTTCCCGGTAATCCGTATTTGGG (site AAGCACGCTCC) | 0.371
36 | AGGCACGCATGGACCGGTTTTCCCGGTAATCCGTATTTGGG (site ACGCACGCTCC) | 0.183
37 | AGGCACGCATGGACCGGTTTTCCCGGTAATCCGTATTTGGG (site AGGCACGCTCC) | 1.76
38 | AGGCACGCATGGACCGGTTTTCCCGGTAATCCGTATTTGGG (site ATGCACGCTCC) | 0.0107
39 | AGGCACTCATGGACCGGTTTTCCCGGTAATCCGTATTTGCA (site AGGCACTCTTG) | 2.66
40 | AGGCGAGCATGGACCGGTTTTCCCGGTAATCCGTATTTGCG (site AGGCGAGCTCG) | 2.02
41 | AGGCGTGCATGGACCGGTTTTCCCGGTAATCCGTATTTGGA (site AGGCGTGCTTC) | 0.745
42 | AGGCTAGCATGGACCGGTTTTCCCGGTAATCCGTATTTGTT (site AGACTAGCTAA) | 0.334
43 | AGGCTAGCATGGACCGGTTTTCCCGGTAATCCGTATTTGTT (site AGCCTAGCTAA) | 0.017
44 | AGGCTAGCATGGACCGGTTTTCCCGGTAATCCGTATTTGTT (site AGGCTAGCTAA) | 0.779
45 | AGGCTAGCATGGACCGGTTTTCCCGGTAATCCGTATTTGTT (site AGTCTAGCTAA) | 0.0182
46 | AGGCTGGCATGGACCGGTTTTCCCGGTAATCCGTATTTGTC (site AGGCTGGCTGA) | 0
47 | AGGGAAACATGGACCGGTTTTCCCGGTAATCCGTATTTGCA (site AGGAAGACTTG) | 0.301
48 | AGGGAAACATGGACCGGTTTTCCCGGTAATCCGTATTTGCA (site AGGGAAACTTG) | 1.42
49 | AGGGAACCATGGACCGGTTTTCCCGGTAATCCGTATTTGAT (site AGGGAACCTAT) | 0
50 | AGGGAACCATGGACCGGTTTTCCCGGTAATCCGTATTTGAT (site CGGGAACCTAT) | 0

Row | Sequence | recombinant UMI read abundance (log10)
51 | AGGGAACCATGGACCGGTTTTCCCGGTAATCCGTATTTGAT (site GGGGAACCTAT) | 0
52 | AGGGAACCATGGACCGGTTTTCCCGGTAATCCGTATTTGAT (site TGGGAACCTAT) | 0
53 | AGGGAGACATGGACCGGTTTTCCCGGTAATCCGTATTTGCC (site AGGGAGACTGG) | 1.26
54 | AGGGAGACATGGACCGGTTTTCCCGGTAATCCGTATTTGCG (site AGGAAGACTTG) | 0.64
55 | AGGGAGACATGGACCGGTTTTCCCGGTAATCCGTATTTGCG (site AGGGAGACTCG) | 1.54
56 | AGGGAGCCATGGACCGGTTTTCCCGGTAATCCGTATTTGCC (site AGGGAGCCTGG) | 0
57 | AGGGCTACATGGACCGGTTTTCCCGGTAATCCGTATTTGAC (site AGGACTACTGT) | 1.24
58 | AGGGCTACATGGACCGGTTTTCCCGGTAATCCGTATTTGAC (site AGGCCTACTGT) | 0
59 | AGGGCTACATGGACCGGTTTTCCCGGTAATCCGTATTTGAC (site AGGGCTACTGT) | 2.55
60 | AGGGCTACATGGACCGGTTTTCCCGGTAATCCGTATTTGAC (site AGGTCTACTGT) | 1
61 | AGGGTCCCATGGACCGGTTTTCCCGGTAATCCGTATTTGTC (site AGGGTCCCTGA) | 0.534
62 | AGGTAAACATGGACCGGTTTTCCCGGTAATCCGTATTTGAG (site AGGTAAACTCT) | 2.07
63 | AGGTAGACATGGACCGGTTTTCCCGGTAATCCGTATTTGCC (site AGGAAGACTTG) | 0
64 | AGGTAGACATGGACCGGTTTTCCCGGTAATCCGTATTTGCC (site AGGTAGACTGG) | 2.79
65 | AGGTAGGCATGGACCGGTTTTCCCGGTAATCCGTATTTGTT (site AGGTAGGCTAA) | 1.94
66 | AGGTATCCATGGACCGGTTTTCCCGGTAATCCGTATTTGTC (site AGGTATCCTGA) | 0.494
67 | AGGTCAGCATGGACCGGTTTTCCCGGTAATCCGTATTTGAT (site AGGTCAGCTAT) | 1.84
68 | AGGTCTACATGGACCGGTTTTCCCGGTAATCCGTATTTGAC (site AGGACTACTGT) | 0
69 | AGGTCTACATGGACCGGTTTTCCCGGTAATCCGTATTTGAC (site AGGCCTACTGT) | 2.1
70 | AGGTCTACATGGACCGGTTTTCCCGGTAATCCGTATTTGAC (site AGGGCTACTGT) | 0.00558
71 | AGGTCTACATGGACCGGTTTTCCCGGTAATCCGTATTTGAC (site AGGTCTACTGT) | 1.18
72 | AGGTGCCCATGGACCGGTTTTCCCGGTAATCCGTATTTGGA (site AGGTGCCCTTC) | 0.00688
73 | AGGTGGGCATGGACCGGTTTTCCCGGTAATCCGTATTTGTG (site AGGTGGGCTCA) | 1.56
74 | AGGTTAGCATGGACCGGTTTTCCCGGTAATCCGTATTTGAG (site AGGTTAGCTCT) | 1.94
75 | AGGTTCCCATGGACCGGTTTTCCCGGTAATCCGTATTTGTA (site AGGTTCCCTAA) | 0.0166
